What was measured:
[1] = target: FLT3 kinase (Homo sapiens (Human), UniProt P36888); test: FLT3 kinase assay (radiometric); format: biochemical; settings: bound
Method in brief: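 Recombinant FLT3 (5 ng) phosphorylating poly(Glu4:Tyr1) (2 μg) with 10 μM ATP plus [^33P]-ATP in MOPS pH 7.0 buffer, 4% DMSO final, 60 min at 30° C. Reaction stopped with phosphoric acid, filter-captured and scintillation-counted; IC50 derived from dose-response.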

[2] = tested on: osteoclast precursors (osteoclast differentiation); test: Osteoclast tartrate-resistant acid phosphatase assay; format: cell-based; settings: 168 h, at 1 μM treatment, 7 days, RANKL and M-CSF, read-out: inhibition activity against osteoclast differentiation
Method in brief: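 Differentiation inhibition was scored at 1 μM compound in duplicate, using supernatant TRAP activity read at 550 nm with an acid phosphatase kit.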

[3] = target: PDGFRβ kinase (Homo sapiens (Human), UniProt P09619); test: PDGFRβ kinase assay (radiometric); format: biochemical
Method in brief: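 Radiometric assay: recombinant PDGFRβ with poly(Glu4:Tyr1) in MOPS pH 7.0 buffer containing Mg2+/Mn2+, 10 μM ATP plus [33P]-ATP, and compound at 4% DMSO final. Incubated 60 min at 30° C, stopped with phosphoric acid, filter-captured and scintillation-counted. IC50 from curve fitting.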

[4] = target: c-KIT kinase (Homo sapiens (Human), UniProt P10721); test: c-KIT kinase assay (radiometric); format: biochemical
Method in brief: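 Recombinant c-Kit (20 ng) with 2 μg Poly-(Glu4:Tyr1) in MOPS pH 7.0 buffer with MgCl2/MnCl2, 10 μM ATP plus [^33P]-ATP, 4% DMSO final, 60 min at 30° C. Stopped with phosphoric acid, filter-captured and scintillation counted; IC50 from curve fit.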

[5] = tested on: CSF-1-dependent M-NFS-60 mouse myeloid leukemia cell; test: M-NFS-60 cell proliferation assay (CellTiter-96); format: cell-based; settings: Cytotoxicity, M-NFS-60 cells, 72 hours
Method in brief: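 CSF-1-dependent M-NFS-60 cells seeded at 2000 cells/well, settled overnight at 37 °C, 5% CO2, then exposed to increasing compound concentrations for 72 h. Viability read by CellTiter 96 AQueous One reagent (4 h) at 490 nm absorbance.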

[6] = target: CSF-1R kinase (Homo sapiens (Human), UniProt P07333); test: CSF-1R kinase assay (AlphaScreen); format: biochemical; settings: class symbol
Experimental: Inhibition of CSF-1R kinase activity by a test compound disclosed herein was estimated by AlphaScreen (PerkinElmer). […] Reactions were incubated at 30° C. for 45 min and stopped by adding 5 μL of 50 mM EDTA. Analysis of resulting product using an AlphaScreen kit, and counted with Enspire Alpha (PerkinElmer). […] The IC50 values of quinoxaline compounds of this invention against CSF-1R kinase were determined using the GraphPad Prism 5 software.

[7] = tested on: Kasumi-1 human acute myeloid leukemia cell with c-KIT N822K activating mutation; test: Kasumi-1 cell proliferation assay (CellTiter-96); format: cell-based; settings: Cytotoxicity, Kasumi-1 cells, 72 hours
Method in brief: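 Kasumi-1 cells, seeded at 64000 cells/well and incubated overnight at 37 °C, were exposed to increasing compound concentrations for 72 h. Viability was measured by CellTiter96 AQueous One reagent (4 h) and absorbance at 490 nm.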

[8] = tested on: THP-1 human acute monocytic leukemia cell harboring NRAS G12D mutation; test: THP-1 cell proliferation assay (counter screen, CellTiter-96); format: cell-based; settings: Cytotoxicity, THP-1 cells (counter screen), 72 hours
Method in brief: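 THP-1 cells, RTK-independent owing to NRAS G12D, seeded at 5000/well, incubated overnight at 37 °C/5% CO2, then exposed to increasing compound concentrations for 72 h. CellTiter96 AQueous One reagent added for 4 h; viability from absorbance at 490 nm.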

[9] = tested on: MV4-11 human acute myeloid leukemia cell with FLT3-ITD mutation; test: MV4-11 cell proliferation assay (CellTiter-96); format: cell-based; settings: Cytotoxicity, MV4-11 cells, 72 hours
Method in brief: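 MV4-11 cells (FLT3-ITD, FLT3-dependent growth) seeded at 6500 cells/well, incubated overnight at 37° C., 5% CO2, then exposed to increasing compound concentrations for 72 hours. Viability read by CellTiter96 AQueous One reagent (4 hours), absorbance at 490 nm.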

Sequence of c-KIT kinase (P10721 26-976): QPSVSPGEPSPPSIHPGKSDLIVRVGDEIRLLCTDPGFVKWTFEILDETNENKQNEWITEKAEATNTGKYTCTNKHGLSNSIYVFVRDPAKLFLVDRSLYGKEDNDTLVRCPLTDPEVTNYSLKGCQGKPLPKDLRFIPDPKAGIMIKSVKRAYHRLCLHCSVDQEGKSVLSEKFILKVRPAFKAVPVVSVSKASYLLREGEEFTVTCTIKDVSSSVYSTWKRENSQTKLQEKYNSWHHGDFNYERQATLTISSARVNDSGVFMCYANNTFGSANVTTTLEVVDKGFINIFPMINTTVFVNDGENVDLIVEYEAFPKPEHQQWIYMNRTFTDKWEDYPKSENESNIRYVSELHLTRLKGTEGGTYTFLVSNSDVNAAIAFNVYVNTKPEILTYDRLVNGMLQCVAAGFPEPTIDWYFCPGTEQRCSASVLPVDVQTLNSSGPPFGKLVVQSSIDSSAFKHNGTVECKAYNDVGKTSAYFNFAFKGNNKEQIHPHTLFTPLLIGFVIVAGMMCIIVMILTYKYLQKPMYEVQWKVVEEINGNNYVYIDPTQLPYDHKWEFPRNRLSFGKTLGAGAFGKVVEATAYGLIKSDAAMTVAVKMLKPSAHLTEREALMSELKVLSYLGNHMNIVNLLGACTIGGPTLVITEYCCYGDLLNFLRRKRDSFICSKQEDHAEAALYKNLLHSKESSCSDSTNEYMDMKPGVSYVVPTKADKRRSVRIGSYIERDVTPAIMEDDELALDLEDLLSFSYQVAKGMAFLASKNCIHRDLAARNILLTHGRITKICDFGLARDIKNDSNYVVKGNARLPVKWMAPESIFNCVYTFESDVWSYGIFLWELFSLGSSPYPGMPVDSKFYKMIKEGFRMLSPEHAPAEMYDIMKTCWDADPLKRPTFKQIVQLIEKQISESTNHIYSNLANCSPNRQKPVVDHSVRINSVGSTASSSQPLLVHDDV
Sequence of CSF-1R kinase (P07333 20-972): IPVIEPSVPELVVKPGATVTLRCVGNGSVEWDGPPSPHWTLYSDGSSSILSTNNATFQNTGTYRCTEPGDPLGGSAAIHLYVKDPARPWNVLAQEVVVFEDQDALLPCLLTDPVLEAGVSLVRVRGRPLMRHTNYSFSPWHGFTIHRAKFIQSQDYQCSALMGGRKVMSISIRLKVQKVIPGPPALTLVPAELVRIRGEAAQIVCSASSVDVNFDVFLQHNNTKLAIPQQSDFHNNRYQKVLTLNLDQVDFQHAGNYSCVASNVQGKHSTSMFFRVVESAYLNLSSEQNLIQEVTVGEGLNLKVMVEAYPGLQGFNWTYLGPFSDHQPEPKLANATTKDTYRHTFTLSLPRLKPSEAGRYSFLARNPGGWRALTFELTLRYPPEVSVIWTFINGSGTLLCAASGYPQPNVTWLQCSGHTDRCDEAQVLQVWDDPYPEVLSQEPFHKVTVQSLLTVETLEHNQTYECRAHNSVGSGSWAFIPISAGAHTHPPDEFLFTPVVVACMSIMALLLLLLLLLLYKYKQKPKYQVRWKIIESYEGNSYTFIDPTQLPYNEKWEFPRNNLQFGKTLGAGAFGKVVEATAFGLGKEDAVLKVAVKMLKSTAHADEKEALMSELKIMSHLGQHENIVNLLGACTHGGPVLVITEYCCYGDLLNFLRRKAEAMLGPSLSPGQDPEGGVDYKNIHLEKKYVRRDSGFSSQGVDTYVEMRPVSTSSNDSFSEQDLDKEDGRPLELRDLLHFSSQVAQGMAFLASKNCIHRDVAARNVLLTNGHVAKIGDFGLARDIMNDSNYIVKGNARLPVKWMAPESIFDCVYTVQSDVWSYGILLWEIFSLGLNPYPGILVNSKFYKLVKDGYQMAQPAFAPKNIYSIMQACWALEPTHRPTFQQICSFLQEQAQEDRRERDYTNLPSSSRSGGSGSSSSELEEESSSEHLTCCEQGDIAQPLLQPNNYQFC
Sequence of PDGFRβ kinase (P09619 33-1106): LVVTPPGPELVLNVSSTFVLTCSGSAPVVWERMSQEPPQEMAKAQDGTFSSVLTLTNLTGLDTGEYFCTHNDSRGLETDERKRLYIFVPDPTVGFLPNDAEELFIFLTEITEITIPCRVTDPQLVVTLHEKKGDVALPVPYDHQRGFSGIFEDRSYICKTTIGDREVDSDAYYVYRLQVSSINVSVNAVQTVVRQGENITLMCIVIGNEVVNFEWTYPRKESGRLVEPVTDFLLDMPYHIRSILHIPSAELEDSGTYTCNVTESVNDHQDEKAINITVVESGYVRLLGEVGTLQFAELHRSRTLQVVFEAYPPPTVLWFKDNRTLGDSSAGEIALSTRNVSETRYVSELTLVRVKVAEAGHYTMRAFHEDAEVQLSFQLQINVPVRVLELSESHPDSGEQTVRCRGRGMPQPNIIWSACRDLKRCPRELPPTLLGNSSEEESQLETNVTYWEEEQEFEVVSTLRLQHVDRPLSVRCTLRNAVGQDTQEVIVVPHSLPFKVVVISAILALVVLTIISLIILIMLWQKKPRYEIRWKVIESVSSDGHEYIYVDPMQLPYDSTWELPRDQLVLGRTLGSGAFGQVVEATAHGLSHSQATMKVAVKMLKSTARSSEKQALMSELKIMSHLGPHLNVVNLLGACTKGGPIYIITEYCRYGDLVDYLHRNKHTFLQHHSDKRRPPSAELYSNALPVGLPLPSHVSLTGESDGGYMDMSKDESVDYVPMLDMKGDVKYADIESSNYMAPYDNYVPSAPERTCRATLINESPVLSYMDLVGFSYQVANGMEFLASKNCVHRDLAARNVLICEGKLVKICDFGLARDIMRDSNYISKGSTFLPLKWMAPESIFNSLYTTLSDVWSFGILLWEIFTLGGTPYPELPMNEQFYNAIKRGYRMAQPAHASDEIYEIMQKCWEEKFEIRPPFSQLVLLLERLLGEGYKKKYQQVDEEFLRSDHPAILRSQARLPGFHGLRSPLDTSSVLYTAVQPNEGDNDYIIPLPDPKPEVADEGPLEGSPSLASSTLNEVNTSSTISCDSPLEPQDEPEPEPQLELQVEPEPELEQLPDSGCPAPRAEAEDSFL
Sequence of FLT3 kinase (P36888 27-993): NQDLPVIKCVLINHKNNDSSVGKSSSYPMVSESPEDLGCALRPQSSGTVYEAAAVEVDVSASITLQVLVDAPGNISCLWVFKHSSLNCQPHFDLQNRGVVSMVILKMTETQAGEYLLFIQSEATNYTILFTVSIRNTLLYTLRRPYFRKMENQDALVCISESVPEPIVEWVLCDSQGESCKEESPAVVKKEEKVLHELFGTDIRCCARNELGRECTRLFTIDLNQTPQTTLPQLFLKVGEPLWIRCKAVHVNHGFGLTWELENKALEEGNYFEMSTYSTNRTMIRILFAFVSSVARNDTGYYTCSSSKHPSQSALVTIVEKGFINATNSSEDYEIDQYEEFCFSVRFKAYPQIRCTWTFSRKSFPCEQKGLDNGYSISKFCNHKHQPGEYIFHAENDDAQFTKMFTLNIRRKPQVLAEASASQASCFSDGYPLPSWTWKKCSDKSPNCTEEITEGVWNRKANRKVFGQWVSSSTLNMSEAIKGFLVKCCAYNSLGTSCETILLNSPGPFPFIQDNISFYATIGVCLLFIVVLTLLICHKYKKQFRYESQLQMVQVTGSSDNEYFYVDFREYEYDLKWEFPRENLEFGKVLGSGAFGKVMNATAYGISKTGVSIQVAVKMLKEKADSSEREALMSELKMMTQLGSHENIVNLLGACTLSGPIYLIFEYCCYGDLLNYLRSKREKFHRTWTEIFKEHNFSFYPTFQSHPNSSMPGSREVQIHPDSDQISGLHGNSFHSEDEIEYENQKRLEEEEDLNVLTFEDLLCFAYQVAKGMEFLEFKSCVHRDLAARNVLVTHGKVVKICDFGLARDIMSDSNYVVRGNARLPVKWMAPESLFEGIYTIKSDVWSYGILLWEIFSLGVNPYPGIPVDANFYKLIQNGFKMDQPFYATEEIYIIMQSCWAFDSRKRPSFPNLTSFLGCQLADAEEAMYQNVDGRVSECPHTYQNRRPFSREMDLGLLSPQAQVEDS

Row | IC50 [1] [µM] | IC50 ([3]; bound) [µM] | IC50 ([4]; bound) [µM] | IC50 [6] [µM] | IC50 ([4]; class symbol) [µM] | IC50 ([3]; class symbol) [µM] | Structure (SMILES) | inhibition at 1 µM [2] [%] | IC50 [5] [µM] | IC50 [7] [µM] | IC50 [8] [µM] | IC50 [9] [µM]
1 | > 1 | > 1 | > 1 | < 0.1 |  |  | COc1ccc(COc2ccc(Nc3ccc4ncc(C(C)C)nc4c3C#N)cc2OC)cc1 [Example 109, 3-isopropyl-6-((3-methoxy-4-((4-methoxybenzyl)oxy)phenyl)amino)quinoxaline-5-carbonitrile] | > 50 | 1 to 10 | 1 to 10 | > 10 | > 10
2 | > 1 | > 1 |  | < 0.1 | 0.1 to 0.3 |  | COc1ccc(COc2ccc(Nc3ccc4ncc(N5CCOCC5)nc4c3C#N)cc2OC)cn1 [Example 50, 6-((3-methoxy-4-((6-methoxypyridin-3-yl)methoxy)phenyl)amino)-3-morpholinoquinoxaline-5-carbonitrile] | > 50 | < 0.3 | 0.3 to 1 | > 10 | > 10
3 | > 1 | > 1 |  | < 0.1 | < 0.1 |  | COc1cc(Nc2ccc3ncc(N4CCOCC4)nc3c2C#N)ccc1OCc1ccc(C#N)cc1 [Example 64, 6-((4-((4-cyanobenzyl)oxy)-3-methoxyphenyl)amino)-3-morpholinoquinoxaline-5-carbonitrile] | > 50 | < 0.3 | 0.3 to 1 | > 10 | 1 to 10
4 | > 1 | > 1 |  | < 0.1 | < 0.1 |  | COc1cc(Nc2ccc3ncc(N4CCOCC4)nc3c2C#N)ccc1OCc1cccs1 [Example 127, 6-((3-methoxy-4-(thiophen-2-ylmethoxy)phenyl)amino)-3-morpholinoquinoxaline-5-carbonitrile] | > 50 | 1 to 10 | 0.3 to 1 | > 10 | 1 to 10
5 | > 1 | > 1 |  | < 0.1 | < 0.1 |  | COc1cc(Nc2ccc3ncc(N4CCOCC4)nc3c2C#N)ccc1OCc1ccc(Cl)cc1 [Example 49, 6-((4-((4-chlorobenzyl)oxy)-3-methoxyphenyl)amino)-3-morpholinoquinoxaline-5-carbonitrile] | > 50 | < 0.3 | 0.3 to 1 | > 10 | 1 to 10
6 | > 1 | > 1 |  | < 0.1 | 0.3 to 1 |  | COc1cc(N(C)c2ccc3ncc(N4CCOCC4)nc3c2C#N)ccc1OCc1ccc(C)nc1 [Example 129, 6-((3-methoxy-4-((6-methylpyridin-3-yl)methoxy)phenyl)(methyl)amino)-3-morpholinoquinoxaline-5-carbonitrile] | > 50 | 0.3 to 1 | 1 to 10 | > 10 | 1 to 10
7 | > 1 | > 1 |  | < 0.1 | < 0.1 |  | COc1ccc(COc2ccc(Nc3ccc4ncc(N(C)C)nc4c3C#N)cc2OC)cn1 [Example 137, 3-(dimethylamino)-6-((3-methoxy-4-((6-methoxypyridin-3-yl)methoxy)phenyl)amino)quinoxaline-5-carbonitrile] | > 50 | < 0.3 | 0.3 to 1 | > 10 | 1 to 10
8 | > 1 |  |  | < 0.1 | < 0.1 | 0.3 to 1 | COc1ccc(COc2ccc(Nc3ccc4ncc(N5CCN(C)CC5)nc4c3C#N)cc2OC)cc1 [Example 31, 6-((3-methoxy-4-((4-methoxybenzyl)oxy)phenyl)amino)-3-(4-methylpiperazin-1-yl)quinoxaline-5-carbonitrile] | > 50 | < 0.3 | < 0.3 | > 10 | 1 to 10
9 | > 1 | > 1 |  | < 0.1 | 0.1 to 0.3 |  | COCc1ccc(COc2ccc(Nc3ccc4ncc(N5CCOCC5)nc4c3C#N)cc2OC)cn1 [Example 107, 6-((3-methoxy-4-((6-(methoxymethyl)pyridin-3-yl)methoxy)phenyl)amino)-3-morpholinoquinoxaline-5-carbonitrile] | > 50 | < 0.3 | 0.3 to 1 | > 10 | 1 to 10
10 | > 1 | > 1 |  | < 0.1 | < 0.1 |  | COc1ccc(COc2ccc(Nc3ccc4ncc(N5CCN(CCOC(C)=O)CC5)nc4c3C#N)cc2OC)cn1 [Example 74, 2-(4-(8-cyano-7-((3-methoxy-4-((6-methoxypyridin-3-yl)methoxy)phenyl)amino)quinoxalin-2-yl)piperazin-1-yl)ethyl acetate] | > 50 | < 0.3 | 0.3 to 1 | > 10 | 1 to 10
11 | > 1 | > 1 |  | < 0.1 | < 0.1 |  | COc1ccc(COc2ccc(Nc3ccc4ncc(N5CCCC5)nc4c3C#N)cc2OC)cn1 [Example 79, 6-((3-methoxy-4-((6-methoxypyridin-3-yl)methoxy)phenyl)amino)-3-(pyrrolidin-1-yl)quinoxaline-5-carbonitrile] | > 50 | < 0.3 | 0.3 to 1 | > 10 | 1 to 10
12 | > 1 | > 1 |  | < 0.1 | 0.3 to 1 |  | COc1cc(Nc2ccc3ncc(N4CCOCC4)nc3c2C#N)cnc1OCc1ccc(C)nc1 [Example 143, 6-((5-methoxy-6-((6-methylpyridin-3-yl)methoxy)pyridin-3-yl)amino)-3-morpholinoquinoxaline-5-carbonitrile] | > 50 | < 0.3 | > 10 | > 10 | 1 to 10
13 | > 1 | > 1 |  | < 0.1 | < 0.1 |  | COc1cc(N(C)c2ccc3ncc(N4CCOCC4)nc3c2C#N)ccc1OCc1ccc(C2CC2)nc1 [Example 130, 6-((4-((6-cyclopropylpyridin-3-yl)methoxy)-3-methoxyphenyl)(methyl)amino)-3-morpholinoquinoxaline-5-carbonitrile] | > 50 | < 0.3 | 0.3 to 1 | > 10 | 1 to 10
14 | > 1 | > 1 |  | < 0.1 | < 0.1 |  | CCc1ccc(COc2ccc(Nc3ccc4ncc(N5CCOCC5)nc4c3C#N)cc2OC)cn1 [Example 101, 6-((4-((6-ethylpyridin-3-yl)methoxy)-3-methoxyphenyl)amino)-3-morpholinoquinoxaline-5-carbonitrile] | > 50 | < 0.3 | < 0.3 | > 10 | 1 to 10
15 | > 1 | > 1 |  | < 0.1 | < 0.1 |  | COc1ccc(COc2ccc(Nc3ccc4ncc(N5CCC(COC(C)=O)CC5)nc4c3C#N)cc2OC)cc1 [Example 71, (1-(8-cyano-7-((3-methoxy-4-((4-methoxybenzyl)oxy)phenyl)amino)quinoxalin-2-yl)piperidin-4-yl)methyl acetate] | > 50 | < 0.3 | < 0.3 | > 10 | > 10

Source: patent US10689362B2, “Quinoxaline compounds as type III receptor tyrosine kinase inhibitors” (Development Center for Biotechnology, priority 2016, dated 2020)
